What was measured:
male Sprague-Dawley rats [1] = test: Rat tail flick assay; conditions: for tail flick MED (acute pain): intensity 40, cutoff 20 seconds
Description: Morphine sulphate (1-10 mg/kg) was dissolved in 0.9% normal saline solution (NSS)(vehicle) and administered SC 1 hour prior to testing against vehicle. Data were analyzed by a two-way ANOVA using a Bonferroni post-hoc test, *P<0.05, ***P<0.001.
Morphine sulphate (1-10 mg/kg) was dissolved in 0.9% normal saline solution (NSS)(vehicle) and administered SC 1 hour prior to testing against vehicle. % MPE=Percent of Maximum Possible Effect. % MPE=(test latency-baseline)/(cutoff(20 s)-baseline)*100. Data were analyzed by a two-way ANOVA using a Bonferroni post-hoc test, *P<0.05, **P<0.01, ***P<0.001.
Morphine sulphate (10 mg/kg) was dissolved in 0.9% NSS (vehicle). The formulations were administered SC 1 hour prior to testing against vehicle. Data were analyzed by a two-way ANOVA using a Bonferroni multiple comparisons test, *P<0.05, ***P<0.001.
Morphine sulphate (10 mg/kg) was dissolved in 0.9% NSS (vehicle). The formulations were administered SC 1 hour prior to testing against vehicle. % MPE=Percent Maximum Possible Effect. % MPE=(test latency-baseline)/(cutoff(20 s)-baseline)*100. Data were analyzed by a two-way ANOVA using a Bonferroni multiple comparisons test, ***P<0.001.
The positive control, morphine sulfate in 0.9% NS was administered SC 1 hour prior to testing. Rats were assessed the day prior (BL) and then 1, 3 and 5 hours post-dosing. Tail Flick was set to 40 intensity and cutoff 20 seconds. Data were analyzed by a two-way ANOVA using a Bonferroni Multiple Comparisons Test, where *P<0.05,***P<0.001 and ****P<0.0001. Data are represented as the means+S.E.M of two combined studies.
Oxycodone hydrochloride (0.3-5 mg/kg) was dissolved in 0.9% normal saline solution (NSS)(vehicle) and administered SC 1 hour prior to testing against vehicle. Data were analyzed by a two-way ANOVA using a Bonferroni multiple comparisons test, ****P<0.001.
Oxycodone hydrochloride (0.3-5 mg/kg) was dissolved in 0.9% normal saline solution (NSS)(vehicle) and administered SC 1 hour prior to testing against vehicle. % MPE=Percent Maximum Possible Effect. % MPE=(test latency-baseline)/(cutoff(20 s)-baseline)*100. Data were analyzed by a two-way ANOVA using a Bonferroni multiple comparisons test, ****P<0.001.
Oxycodone HCl and vehicle were administered SC 1 hour prior to testing. Rats were assessed one day prior (BL) and then 1, 3 and 5 hours post-oxycodone administration. The tail flick was set to an intensity of 40 and the cutoff was 20 seconds. Oxycodone was dissolved in 0.9% (vehicle). […] Data were analyzed by a two-way ANOVA followed by the Bonferroni Multiple Comparisons Test where, *P<0.05 and ****P<0.001.
Oxycodone HCl was administered PO 1 hour prior to testing, while morphine sulfate, the positive control, was administered SC 1 Hour prior to testing. Behavior was assessed the day prior (BL) to dosing, and then 1, 3, 5 and 24 hours post-compound administration. The tail flick was set to an intensity of 40 and 20 seconds was used as the cutoff. Oxycodone was dissolved in water (vehicle), while morphine was dissolved in 0.9% NS. Data were analyzed by a two-way ANOVA using a Bonferroni Multiple Comparisons Test, where *P<0.05, **P<0.01, ***P<0.001 and * * * *P<0.0001.
Rats were assessed for tail flick latency the day prior to dosing, then 1.5, 3 and 5 hours post-morphine administration. Data were analyzed by a two-way ANOVA using the Bonferroni Multiple Comparisons Test, where ****P<0.0001 compared to vehicle+vehicle. Data are represented as the means+S.E.M.
Rats were assessed for thermal latency 1.5, 3 and 5 hours post-morphine administration. % MPE=Percent Maximum Possible Effect. % MPE=(test latency-baseline)/(cutoff(20 s)-baseline)*100. Data were analyzed by a two-way ANOVA using a Bonferroni multiple comparisons test for post-hoc analysis where *P<0.05 and ****P<0.001. Data are represented as the means+SEM.
Rats were tested 1 hour after oxycodone injection.

male Sprague-Dawley rats [2] = test: Charcoal meal GI transit, opioid alone; conditions: for GI transit (% of the small intestine travelled by a charcoal meal): vs vehicle
Description: 0.5 hour later, a charcoal meal (1 ml/100 grams) was orally administered (PO) to the test subjects.
One hour after the charcoal meal, the test subjects were euthanized by CO2 and the gastrointestinal tract was removed from the stomach to the cecum. The length of the small intestine and the distance (cm) to the leading edge of the charcoal were recorded. Data were analyzed using a one-way ANOVA followed by the Dunnett's Multiple Comparisons test where *P<0.05, **P<0.01 and***P<0.001.
The length of the small intestine and the distance (cm) to the leading edge of the charcoal were recorded. Data were analyzed using a one-way ANOVA followed by Bonferroni's Multiple Comparisons Test where *P<0.05, **P<0.01 and ****P<0.001 vs. vehicle. Data are represented as the means+S.E.M.
One hour after charcoal, all rats were euthanized by CO2 and the GI tract was removed from the stomach to the cecum. The length of the small intestine and the distance (cm) to the leading edge of charcoal was recorded. Data were analyzed using a one-way ANOVA with Bonferonni's Post-Test where ****P<0.0001 vs. vehicle. Data are represented as the means+S.E.M.
One hour later, the rats were euthanized by CO2 and the gastrointestinal tract was removed from the stomach to the cecum. The length of the small intestine and the distance (cm) to the leading edge of charcoal were recorded. Data were analyzed using a one-way ANOVA followed by the Dunnett's Multiple Comparisons test where ***P<0.001. Data are represented as the mean+S.E.M.
Rats were dosed with Oxycodone HCl/Oxy or vehicle (water) PO once daily for 5 days (chronic). Additional groups were dosed only once on day 5 (acute). […] One hour after charcoal, all rats were euthanized by CO2 and the GI tract was removed from the stomach to the cecum. The length of the small intestine and the distance (cm) to the leading edge of charcoal was recorded. Data were analyzed using a one-way ANOVA with Bonferonni's Multiple Comparison Test where * P<0.05, ****P<0.0001 vs. vehicle (chronic), ### vs. oxycodone (acute). Data are represented as the means+S.E.M.

male Sprague-Dawley rats [3] = test: Rat hot plate assay; conditions: for hot plate MED (acute pain): 52° C., cutoff 30 seconds
Description: Morphine sulphate (1-10 mg/kg) was dissolved in 0.9% normal saline solution (NSS)(vehicle) and administered SC 1 hour prior to testing against vehicle. Data were analyzed by a two-way ANOVA using a Bonferroni Multiple Comparison Test,***P<0.001.
Morphine sulphate (1-10 mg/kg) was dissolved in 0.9% normal saline solution (NSS)(vehicle) and administered SC 1 hour prior to testing against vehicle. % MPE=Percent Maximum Possible Effect. % MPE=(test latency-baseline)/(cutoff-baseline). Data was analyzed using a Bonferroni Multiple Comparison Test,***P<0.001.
Morphine sulphate (10 mg/kg), the positive control, was dissolved in 0.9% NSS (vehicle). The formulations were administered SC 1 hour prior to testing against vehicle. Data were analyzed by a two-way ANOVA using a Bonferroni multiple comparisons test, where *P<0.05 and ***P<0.001. Data are represented as the means+S.E.M.
Morphine sulphate (10 mg/kg) was dissolved in 0.9% NSS (vehicle). The formulations were administered SC 1 hour prior to testing against vehicle. % MPE=Percent Maximum Possible Effect. % MPE=(test latency-baseline)/(cutoff (30 s)-baseline). Data were analyzed by a two-way ANOVA using Bonferroni Multiple Comparisons test for post-hoc analysis, where *P<0.05 and ***P<0.001. Data are represented as the means+SEM.
The positive control, morphine sulfate in 0.9% NS, was administered SC 1 hour prior to testing. Rats were assessed one day prior (BL) and then 1, 3 and 5 hours post-dosing. Hot Plate was set to 52° C. and cutoff was 30 seconds. Data were analyzed by a two-way ANOVA using a Bonferroni Multiple Comparisons Test, where *P<0.05, ***P<0.001 and ****P<0.0001 versus vehicle. Data are represented as the means+S.E.M from two combined studies.
Oxycodone hydrochloride (0.3-5 mg/kg) was dissolved in 0.9% normal saline solution (NSS)(vehicle) and administered SC 1 hour prior to testing against vehicle. Hot plate was set to 52° C. and cutoff was 30 seconds. Data were analyzed by a two-way ANOVA using a Bonferroni multiple comparisons test, where ****P<0.0001. Data are represented as the means+S.E.M.
Compound was administered SC 1 hour prior to testing. Oxycodone hydrochloride (0.3-5 mg/kg) was dissolved in 0.9% normal saline solution (NSS)(vehicle) and administered SC 1 hour prior to testing against vehicle. Hot plate was set to 52° C. and cutoff was 30 seconds. % MPE=. Percent Maximum Possible Effect. % MPE=(test latency-baseline)/(cutoff (30 s)-baseline). Data were analyzed by a two-way ANOVA using Bonferroni Multiple Comparisons test for post-hoc analysis, ****P<0.000. Data are represented as the means+SEM.
Oxycodone HCl was administered SC 1 hour prior to testing. Thermal latency was assessed the day prior (BL) and then 1, 3 and 5 hours post-oxycodone dosing. The hotplate was set to 52° C. and the cutoff was 30 seconds. Oxycodone was dissolved in 0.9% NS (vehicle). […] Data were analyzed by a two-way ANOVA using the Bonferroni Multiple Comparisons test for post-hoc analysis where, ***P<0.001. Data are represented as the means+SEM.
Oxycodone HCl was administered PO 1 hour prior to testing, while morphine sulfate, the positive control, was administered SC 1 hour prior to testing. Behavior was assessed the day prior (BL) and then 1, 3, 5 and 24 hours post-compound administration. The hot plate was set to 52° C. and the cutoff was 30 seconds. Oxycodone was dissolved in water (vehicle), while morphine sulfate was dissolved in 0.9% NS. Data were analyzed by a two-way ANOVA using a Bonferroni Multiple Comparisons Test, where ****P<0.0001.
Rats were assessed for thermal latency the day prior to dosing, then 1.5, 3 and 5 hours post-morphine administration. Data were analyzed by a two-way ANOVA using the Bonferroni Multiple Comparisons Test, where ****P<0.0001 compared to vehicle+vehicle. Data are represented as the means+S.E.M.

male Sprague-Dawley rats [4] = test: Stomach weight (gastric emptying) after charcoal meal; type: in vivo, rat; conditions: morphine sulfate 1-10 mg/kg SC, 0.5 hour before charcoal meal; vs vehicle
Description: Morphine sulfate (1-10 mg/kg) or 0.9% normal saline (vehicle) was administered SC to the test subjects. 0.5 hour later, a charcoal meal (1 ml/100 grams) was administered PO to the test subjects. One hour after the charcoal meal, the test subjects were euthanized by CO2 and the stomachs were removed and weighed. Data were analyzed using a one-way ANOVA followed by the Dunnett's Multiple Comparisons test where *P<0.05, **P<0.01 and ***P<0.001. […] This effect was dose dependent with a greater magnitude of effect observed with increasing dose.

[5] = morphine sulphate 1-10 mg/kg SC 1 hour prior to testing
[6] = oxycodone hydrochloride 0.3-5 mg/kg SC 1 hour prior to testing

## CN1CC[C@]23c4c5ccc(O)c4O[C@H]2[C@@H](O)C=C[C@H]3[C@H]1C5.O=S(=O)(O)O [morphine, morphine sulphate]
Male Sprague-Dawley rats [1]; [5]
  tail flick % MPE: increased % of the maximal possible effect
  tail flick latency to nocifensive response: increased latency to nocifensive response
Male Sprague-Dawley rats [2]; morphine sulfate 1-10 mg/kg SC, 0.5 hour before charcoal meal
  GI transit (% of the small intestine travelled by a charcoal meal): decreases gastrointestinal transit
Male Sprague-Dawley rats [3]; [5]
  hot plate % MPE: increased % of the maximal possible effect
  hot plate latency to nocifensive response: increased latency to nocifensive response
Male Sprague-Dawley rats [4]
  stomach weight (gastric emptying): increased stomach weight due to delayed gastric emptying

## COc1ccc2c3c1O[C@H]1C(=O)CC[C@@]4(O)[C@@H](C2)N(C)CC[C@]314.Cl [oxycodone, oxycodone hydrochloride]
Male Sprague-Dawley rats [1]; oxycodone HCl 10 mg/kg SC dosing group, at the 3 hr time point
  rats found dead: 4 out of 10
Male Sprague-Dawley rats [1]; oxycodone HCl PO
  tail flick MED (acute pain): 10 mg/kg
Male Sprague-Dawley rats [1]; oxycodone HCl SC
  tail flick MED (acute pain): 3 mg/kg
Male Sprague-Dawley rats [1]; [6]
  tail flick % MPE: increased % of the maximal possible effect
  tail flick latency to nocifensive response: increased latency to nocifensive response
Male Sprague-Dawley rats [2]; oxycodone HCl PO once daily for 5 days (chronic) vs single dose on day 5 (acute)
  tolerance to inhibition of GI transit on repeated dosing: produces some tolerances to its acute effect on the inhibition of GI transit
Male Sprague-Dawley rats [2]; oxycodone hydrochloride 0.3-5 mg/kg SC, 1 hour before charcoal meal
  GI transit (% of the small intestine travelled by a charcoal meal): decreases gastrointestinal transit
Male Sprague-Dawley rats [3]; oxycodone HCl 10 mg/kg SC, at the 3 hr time point
  rats found dead: 4 out of 10
Male Sprague-Dawley rats [3]; oxycodone HCl PO
  hot plate MED (acute pain): 10 mg/kg
Male Sprague-Dawley rats [3]; oxycodone HCl SC
  hot plate MED (acute pain): 3 mg/kg
Male Sprague-Dawley rats [3]; [6]
  hot plate % MPE: increased % of the maximal possible effect
  hot plate latency to nocifensive response: increased latency to nocifensive response

Source: patent publication US10226457B2, “Systems and methods for treating an opioid-induced adverse pharmacodynamic response” (Purdue Pharma L.P., priority 2014, dated 2019)
